Data reported in patent publication US11000033B2, “Ketone or oxime compound, and herbicide” (NISSAN CHEMICAL CORPORATION, priority 2014, dated 2021).

Key:
Assay type in all cases: in vivo
Alopecurus myosuroides = assay: Test Example 5: herbicidal effect by foliage application, plastic box (symbol J); details: 320 g/ha, 3 weeks after application
Procedure, shortened: (§1)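 Effect is rated 3 weeks after a foliar spray of water-diluted emulsion concentrate at a predetermined herbicide amount. Plants had grown 14 days in a 25° C. to 30° C. greenhouse from seed in sterilized diluvial soil.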

[1] = system: Echinochloa crus-galli var. crus-galli; assay: Test Example 5: herbicidal effect by foliage application, plastic box (symbol H); details: 320 g/ha, 3 weeks after application
Procedure, shortened: as §1

soybean = assay: Test Example 5: effect on crop by foliage application, plastic box (symbol d); details: 320 g/ha, 3 weeks after application
Procedure, shortened: (§2)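 Soil: sterilized diluvial. Container: plastic box, 21 × 13 cm, 7 cm deep. Sowing: spot-like, ~1.5 cm cover. Growth: greenhouse, 25° C. to 30° C.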

Leptochloa chinensis = assay: Test Example 3: herbicidal effect by foliage application, Wagner pot (symbol D); details: application herbicide amount 320 g/ha, Table 24
Procedure, shortened: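 Herbicidal activity was rated three weeks after a foliar spray of diluted emulsion concentrate, applied at a predetermined dose to plants grown for 14 days from seed in waterlogged alluvial soil within a 25–30 °C greenhouse.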

Avena fatua = assay: Test Example 4: herbicidal effect by soil treatment (symbol I); details: application herbicide amount 320 g/ha
Procedure, shortened: (§3)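 Seeds were sown in sterilized diluvial soil, covered with about 1.5 cm of soil, and the soil surface was sprayed with a water-diluted emulsion of the compound at a predetermined rate. Plants grew in a greenhouse at 25° C. to 30° C.; effects were scored visually 3 weeks after application.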

corn [2] = assay: Test Example 5: effect on crop by foliage application, plastic box (symbol c); details: 320 g/ha, 3 weeks after application
Procedure, shortened: as §2

corn [3] = assay: Test Example 4: effect on crop by soil treatment (symbol c); details: application herbicide amount 320 g/ha
Procedure, shortened: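 Grown at 25° C. to 30° C. in a greenhouse, the crops came from seed sown spot-wise in sterilized diluvial soil under roughly 1.5 cm of covering soil.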

Digitaria ciliaris = assay: Test Example 4: herbicidal effect by soil treatment (symbol F); details: application herbicide amount 320 g/ha
Procedure, shortened: as §3

rapeseed = assay: Test Example 4: effect on crop by soil treatment (symbol g); details: application herbicide amount 320 g/ha
Procedure, shortened: (§4)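 Greenhouse culture at 25° C. to 30° C. followed sowing of seed in spots on sterilized diluvial soil with a soil cover close to 1.5 cm thick.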

Monochoria vaginalis = assay: Test Example 2: herbicidal activity, application during weed generation in submerged conditions (symbol C); details: Table 23; application herbicide amount 320 g/ha; grade 0-5 by criteria of Test Example 1
Procedure, shortened: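 Visual herbicidal ratings, taken three weeks after dosing, reflect post-emergence water-surface application to seedlings at one to two leaves. Conditions: co-sown weeds in alluvial soil flooded to 4 cm, greenhouse held at 25° C. to 30° C.; compound given as water-diluted emulsion at a fixed herbicide amount.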

rice = assay: Test Example 4: effect on crop by soil treatment (symbol b); details: application herbicide amount 320 g/ha
Procedure, shortened: as §4

SMILES	J: Alopecurus myosuroides, herbicidal effect grade (Alopecurus myosuroides)	H: Echinochloa crus-galli var. crus-galli, herbicidal effect grade [1]	d: soybean, effect on crop grade (soybean)	D (Leptochloa chinensis) herbicidal effect grade (Leptochloa chinensis)	Herbicidal effect grade, I: Avena fatua (Avena fatua)	c: corn, effect on crop grade (corn [2])	Effect on crop grade, c: corn (corn [3])	Herbicidal effect grade, F: Digitaria ciliaris (Digitaria ciliaris)	Effect on crop grade, g: rapeseed (rapeseed)	Herbicidal effect grade, C: Monochoria vaginalis (Monochoria vaginalis)	Effect on crop grade, b: directly sowed rice plant (rice)
CC#Cc1cc(C)c(C2=C(O)CC(CC(C)=NOCC(F)(F)F)C2=O)c(C)c1 (stereo not drawn) [9-011]	5 (Herbicidal ratio of 90% or more (almost completely withered))	5 (Herbicidal ratio of 90% or more (almost completely withered))	2 (Herbicidal ratio of 20% or higher and lower than 40%)	5 (Herbicidal ratio of 90% or more (almost completely withered))	3 (Herbicidal ratio of 40% or higher and lower than 70%)	5 (Herbicidal ratio of 90% or more (almost completely withered))	5 (Herbicidal ratio of 90% or more (almost completely withered))	5 (Herbicidal ratio of 90% or more (almost completely withered))	4 (Herbicidal ratio of 70% or higher and lower than 90%)	4 (Herbicidal ratio of 70% or higher and lower than 90%)	5 (Herbicidal ratio of 90% or more (almost completely withered))
CC(CC1CC(OC(=O)COc2ccccc2)=C(c2c(C)cc(-n3cc(Cl)cn3)cc2C)C1=O)=NOCC(F)(F)F (stereo not drawn) [9-012]	5 (Herbicidal ratio of 90% or more (almost completely withered))	5 (Herbicidal ratio of 90% or more (almost completely withered))	1 (Herbicidal ratio of 5% or higher and lower than 20%)	5 (Herbicidal ratio of 90% or more (almost completely withered))	0 (Herbicidal ratio of 5% or lower (almost no effect))	5 (Herbicidal ratio of 90% or more (almost completely withered))	2 (Herbicidal ratio of 20% or higher and lower than 40%)	5 (Herbicidal ratio of 90% or more (almost completely withered))	0 (Herbicidal ratio of 5% or lower (almost no effect))	2 (Herbicidal ratio of 20% or higher and lower than 40%)	5 (Herbicidal ratio of 90% or more (almost completely withered))
CC#Cc1cc(C)c(C2=C(OC(=O)COc3ccccc3)CC(CC(C)=NOCC(F)(F)F)C2=O)c(C)c1 (stereo not drawn) [9-013]	5 (Herbicidal ratio of 90% or more (almost completely withered))	5 (Herbicidal ratio of 90% or more (almost completely withered))	0 (Herbicidal ratio of 5% or lower (almost no effect))	5 (Herbicidal ratio of 90% or more (almost completely withered))	5 (Herbicidal ratio of 90% or more (almost completely withered))	5 (Herbicidal ratio of 90% or more (almost completely withered))	5 (Herbicidal ratio of 90% or more (almost completely withered))	5 (Herbicidal ratio of 90% or more (almost completely withered))	4 (Herbicidal ratio of 70% or higher and lower than 90%)	3 (Herbicidal ratio of 40% or higher and lower than 70%)	5 (Herbicidal ratio of 90% or more (almost completely withered))
Cc1cc(-n2cc(Cl)cn2)cc(C)c1C1=C(O)CC(CC(=NOCC(F)(F)F)C(C)C)C1=O (stereo not drawn) [9-014]	4 (Herbicidal ratio of 70% or higher and lower than 90%)	5 (Herbicidal ratio of 90% or more (almost completely withered))	0 (Herbicidal ratio of 5% or lower (almost no effect))	5 (Herbicidal ratio of 90% or more (almost completely withered))	0 (Herbicidal ratio of 5% or lower (almost no effect))	5 (Herbicidal ratio of 90% or more (almost completely withered))	0 (Herbicidal ratio of 5% or lower (almost no effect))	4 (Herbicidal ratio of 70% or higher and lower than 90%)	0 (Herbicidal ratio of 5% or lower (almost no effect))	0 (Herbicidal ratio of 5% or lower (almost no effect))	1 (Herbicidal ratio of 5% or higher and lower than 20%)
COCCON=C(C)CC1CC(O)=C(c2c(C)cc(-n3cc(Cl)cn3)cc2C)C1=O (stereo not drawn) [9-016]	5 (Herbicidal ratio of 90% or more (almost completely withered))	5 (Herbicidal ratio of 90% or more (almost completely withered))	3 (Herbicidal ratio of 40% or higher and lower than 70%)	5 (Herbicidal ratio of 90% or more (almost completely withered))	2 (Herbicidal ratio of 20% or higher and lower than 40%)	5 (Herbicidal ratio of 90% or more (almost completely withered))	3 (Herbicidal ratio of 40% or higher and lower than 70%)	5 (Herbicidal ratio of 90% or more (almost completely withered))	0 (Herbicidal ratio of 5% or lower (almost no effect))	1 (Herbicidal ratio of 5% or higher and lower than 20%)	5 (Herbicidal ratio of 90% or more (almost completely withered))
COCCON=C(C)CC1CC(O)=C(c2c(C)cc(Br)cc2C)C1=O (stereo not drawn) [9-017]	3 (Herbicidal ratio of 40% or higher and lower than 70%)	5 (Herbicidal ratio of 90% or more (almost completely withered))	0 (Herbicidal ratio of 5% or lower (almost no effect))	5 (Herbicidal ratio of 90% or more (almost completely withered))	0 (Herbicidal ratio of 5% or lower (almost no effect))	5 (Herbicidal ratio of 90% or more (almost completely withered))	0 (Herbicidal ratio of 5% or lower (almost no effect))	4 (Herbicidal ratio of 70% or higher and lower than 90%)	0 (Herbicidal ratio of 5% or lower (almost no effect))	0 (Herbicidal ratio of 5% or lower (almost no effect))	1 (Herbicidal ratio of 5% or higher and lower than 20%)
